The subject of assay [1] is NIH3T3/v-Src, MDA-MB-231 and Panc-1 cells. The settings on record: previously reported (18); cited from earlier work.
Assay [2] has as its target T1, Stat3 (Mus musculus, UniProt P42227). The experiment in a line: Fluorescence Polarization assay, Stat3 binding to 5-carboxyfluorescein-GpYLPQTV-NH2 probe. Set-up: Coding regions for the murine Stat3 protein; made in house; host or cells: E. coli BL21(DE3); species or system murine. As for the experimental part: (§1) Coding regions for the murine Stat3 protein and Stat3 SH2 domain were amplified by PCR and cloned into vectors pET-44 Ek/LIC (Novagen) and pET SUMO (Invitrogen), respectively.
Fluorescence Polarization (FP) Assay was conducted as previously reported (23), with some modification using the phospho-peptide, 5-carboxyfluorescein-GpYLPQTV-NH2 (phosphorylated SEQ ID NO:7) (where pY represents phospho-Tyr) as probe and Stat3. The FP assay was used to evaluate the binding of agents to Stat3 and to determine the ability to disrupt the Stat3:pTyr peptide interaction. A fixed concentration of the fluorescently-labeled peptide probe (10 nM) was incubated with increasing concentration of the Stat3 protein for 30 min at room temperature in the buffer, 50 mM NaCI, 10 mM HEPES, 1 mM EDTA, 0.1% Nonidet P-40, and the fluorescent polarization measurements were determined using the POLARstar Omega (BMG LABTECH, Durham, N.C.), with the set gain adjustment at 35 mP. The Z′ value was derived per the equation Z′=1−(3 SDbound+3 SD free)/(mPbound−mPfree), where SD is the standard deviation and mP is the average of fluorescence polarization. In the bound state, 10 nM 5-carboxyfluorescein-GpYLPQTV-NH2 (phosphorylated SEQ ID NO:7) was incubated with 150 nM purified Stat3 protein, while the free (unbound) state was the same mixture, but incubated with an additional 10 IJM unlabeled Ac-GpYLPQTV-NH2 (phosphorylated SEQ ID NO:7). For evaluating agents, Stat3 protein (150 nM) was incubated with serial concentrations of S31-201.1066 at 30° C. for 60 min in the indicated assay buffer conditions. Prior to the addition of the fluorescence probe, the protein:S31-201.1066 mixtures were allowed to equilibrate at room temperature for 15 min. Probe was added at a final concentration of 10 nM and incubated for 30 min at room temperature following which the FP measurements were taken using the POLARstar Omega, with the set gain adjustment at 35 mP.
The FP assay was used to further test the computational modeling prediction of the ability of S31-201.1066 to disrupt Stat3 interaction with its cognate pTyr peptide.

Assay [3] concerns the target T2, His-tagged Stat3 (Mus musculus, UniProt P42227).
T2 construct: Coding regions for the murine Stat3 protein; made in house; host or cells: E. coli BL21(DE3)
The experiment in a line: Surface Plasmon Resonance analysis of binding to immobilized His-tagged Stat3. On the set-up: species or system murine.
From the text: as §1
Clones were sequenced to verify the correct sequences and orientation. His-tagged recombinant proteins were expressed in BL21(DE3) cells, and purified on Ni-ion sepharose column.
SensiQ and its analysis software Qdat (ICX Technologies, Oklahoma City, Okla.) were used to analyze the interaction between agents and the Stat3 protein and to determine the binding affinity. Purified Stat3 was immobilized on a HisCap Sensor Chip by injecting 50 µg/ml of Stat3 onto the chip. […] The association and dissociation rate constants were calculated using the Qdat software. The ratio of the association and dissociation rate constants was determined as the affinity (KD).
To provide definitive evidence of direct binding to Stat3, biophysical studies were performed. H1s-tagged Stat3 protein (or SH2 domain; 50 ng) was immobilized on a Ni-NTA sensor chip surface for Surface Plasmon Resonance analysis of the binding of 531201.1066 as the analyte. Association and dissociation measurements were taken and the binding affinity of S31-201.1066 for Stat3 was determined using Qdat software.

For assay [4], the target named is T1, Stat3. Set-up: endogenous in cells; host or cells: NIH3T3/v-Src mouse fibroblasts (nuclear extract). Conditions: read-out: IC50, disruption of Stat3 DNA-binding activity in vitro; previously reported (22); cited from earlier work.
Assay [5] concerns the target T1, Stat3. On the set-up: Coding regions for the murine Stat3 protein; made in house; host or cells: E. coli BL21(DE3). The settings on record: cited from earlier work.
Assay [6] deals with T1, Stat3. The experiment in a line: Stat3 DNA-binding assay in vitro (EMSA, hSIE probe), nuclear extracts of NIH3T3/v-Src. The format is biochemical. Set-up: endogenous in cells; host or cells: NIH3T3/v-Src mouse fibroblasts (nuclear extract). Conditions: 30 min pre-incubation at room temperature, read-out: IC50, inhibition of Stat3 DNA-binding activity in vitro. As for the experimental part: Nuclear extract preparations and electrophoretic mobility shift assay (EMSA) were carried out as previously described (28,33). […] Except where indicated, nuclear extracts were pre-incubated with compound for 30 min at room temperature prior to incubation with the radiolabeled probe for 30 min at 30° C. before subjecting to EMSA analysis.

Read-outs that look alike come from different tables or passages of the source. Square brackets hold non-standard residues; d marks the D form. Ends that are not written are not given here. Peptide text beside a SMILES is read from it. pY = N[C@@H](Cc1ccc(OP(=O)(O)O)cc1)C(=O)O

T1 sequence (P42227 whole entry, the tested form may be a part): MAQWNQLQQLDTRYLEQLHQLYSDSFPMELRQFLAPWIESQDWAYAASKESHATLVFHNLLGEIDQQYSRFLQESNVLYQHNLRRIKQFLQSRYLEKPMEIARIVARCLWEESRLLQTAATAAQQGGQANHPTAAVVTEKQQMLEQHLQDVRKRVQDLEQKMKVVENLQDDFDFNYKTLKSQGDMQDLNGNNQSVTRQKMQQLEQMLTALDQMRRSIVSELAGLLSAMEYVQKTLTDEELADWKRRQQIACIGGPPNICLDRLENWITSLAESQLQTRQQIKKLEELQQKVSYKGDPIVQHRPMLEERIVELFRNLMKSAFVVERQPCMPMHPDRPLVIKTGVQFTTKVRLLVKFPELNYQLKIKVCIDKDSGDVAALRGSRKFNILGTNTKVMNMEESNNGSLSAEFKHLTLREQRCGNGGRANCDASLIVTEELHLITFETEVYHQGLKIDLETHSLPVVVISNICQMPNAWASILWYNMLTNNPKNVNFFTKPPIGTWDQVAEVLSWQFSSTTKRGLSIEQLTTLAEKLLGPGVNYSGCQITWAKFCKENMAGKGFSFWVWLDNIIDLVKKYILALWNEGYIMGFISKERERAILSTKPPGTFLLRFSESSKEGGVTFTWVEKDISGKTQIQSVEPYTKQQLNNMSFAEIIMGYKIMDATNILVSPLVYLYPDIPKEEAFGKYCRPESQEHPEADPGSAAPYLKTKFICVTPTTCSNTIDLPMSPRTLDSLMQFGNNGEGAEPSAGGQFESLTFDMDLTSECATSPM
T2 sequence (P42227 whole entry): as the sequence (P42227 whole entry, the tested form may be a part) above

Turning to `Cc1ccc(S(=O)(=O)OCC(=O)Nc2ccc(C(=O)O)c(O)c2)cc1` [S3I-201], the “concentration of antitumor cell activity previously reported for the lead agent” value in assay [1] was 100 µM.

For the compound GYLPQTV-NH2 [reference compound], the “effect on the fluorescent polarization signal” value in assay [2] (data not shown) is “no evidence of effect”. For the same compound, in assay [3] (SPR, immobilized His-Stat3), the “binding to Stat3 (SPR)” value is “little evidence of significant binding”.

Turning to `CC(C)C[C@H](NC(=O)[C@H](Cc1ccc(OP(=O)(O)O)cc1)NC(=O)CN)C(=O)N1CCC[C@H]1C(=O)N[C@@H](CCC(N)=O)C(=O)N[C@H](C(=O)N[C@H](C(N)=O)C(C)C)[C@@H](C)O` [GpYLPQTV-NH2] (H-G[pY]LPQTV-NH2), the IC50 in assay [4] was 0.15 µM; in assay [2] (150 nM Stat3, 10 nM probe, read-out: IC50, disruption of Stat3 binding to pTyr peptide probe) it was 0.3 µM; in assay [5] (read-out: IC50, reported, reported (21)), 0.29 ± 0.063 µM; in assay [5] (read-out: IC50 in FP assay, previously reported value, previously reported (23)), 0.25 ± 0.03 µM. For the same compound, the Kd in assay [3] was 0.024 µM; in assay [5] (read-out: affinity for Stat3, reported, reported (23)), 0.15 ± 0.01 µM.

In the case of `Cc1ccc(S(=O)(=O)N(C)CC(=O)N(Cc2ccc(C3CCN(c4ccc(C#N)cc4)CC3)cc2)c2ccc(C(=O)O)c(O)c2)cc1` [S3I-201.2096], the IC50 in assay [6] is 45 µM.

A word on the IC50: it is the concentration that gives 50% inhibition.

(Values after patent US8895746B2 (University of Central Florida Research Foundation, Inc., priority 2009, dated 2014).)
